Measured values reported in patent US8906889B2, “C-3 cycloalkenyl triterpenoids with HIV maturation inhibitory activity” (priority 2012, dated 2014).

What follows are compounds tested on recombinant NL4-3 virus (Renilla luciferase, Gag P373S) (assay: HIV cell culture assay (luciferase reporter, MT-2 cells)). Conditions: Renilla, NL43, MT-2 cells infected for 4-5 days with NLRluc recombinants; luciferase activity.
Type: cell-based
How it was run: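 MT-2 cells were infected for 4–5 days with NL4-3 carrying Renilla luciferase in place of part of nef and the Gag P373S change, in the presence of serially diluted inhibitor. Antiviral activity was quantified as luciferase signal from Dual Luciferase reagent.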

Row | SMILES | EC50 [nM]
1 | C=C(C)[C@@H]1CC[C@]2(NC(=O)OC(C)(C)C)CC[C@]3(C)[C@H](CC[C@@H]4[C@@]5(C)CC=C(C6=CC7(C6)CC(C(=O)O)(C(=O)O)C7)C(C)(C)[C@@H]5CC[C@]43C)[C@@H]12 [Example A1, 6-((1R,3aS,5aR,5bR,7aR,11aS,11bR,13aR,13bR)-3a-((tert-butoxycarbonyl)amino)-5a,5b,8,8,11a-pentamethyl-1-(prop-1-en-2-yl)-2,3,3a,4,5,5a,5b,6,7,7a,8,11,11a,11b,12,13,13a,13b-octadecahydro-1H-cyclopenta[a]chrysen-9-yl)spiro[3.3]hept-5-ene-2,2-dicarboxylic acid] | 570
2 | C=C(C)[C@@H]1CC[C@]2(NCCN(c3ccccc3)S(=O)(=O)C(F)(F)F)CC[C@]3(C)[C@H](CC[C@@H]4[C@@]5(C)CC=C(C6=CC7(C6)CC(C(=O)O)(C(=O)O)C7)C(C)(C)[C@@H]5CC[C@]43C)[C@@H]12 [Example A2, 6-((1R,3aS,5aR,5bR,7aR,11aS,11bR,13aR,13bR)-5a,5b,8,8,11a-pentamethyl-1-(prop-1-en-2-yl)-3a-((2-(1,1,1-trifluoro-N-phenylmethylsulfonamido)ethyl)amino)-2,3,3a,4,5,5a,5b,6,7,7a,8,11,11a,11b,12,13,13a,13b-octadecahydro-1H-cyclopenta[a]chrysen-9-yl)spiro[3.3]hept-5-ene-2,2-dicarboxylic acid] | 1070
3 | C=C(C)[C@@H]1CC[C@]2(NCCN(c3ccc(Cl)cn3)S(=O)(=O)C(F)(F)F)CC[C@]3(C)[C@H](CC[C@@H]4[C@@]5(C)CC=C(C6=CC7(C6)CC(C(=O)O)(C(=O)O)C7)C(C)(C)[C@@H]5CC[C@]43C)[C@@H]12 [Example A3, 6-((1R,3 aS,5aR,5bR,7aR,11aS,11bR,13 aR,13bR)-3a-((2-(N-(5-chloropyridin-2-yl)-1,1,1-trifluoromethylsulfonamido)ethyl)amino)-5a,5b,8,8,11a-pentamethyl-1-(prop-1-en-2-yl)-2,3,3a,4,5,5a,5b,6,7,7a,8,11,11a,11b,12,13,13a,13b-octadecahydro-1H-cyclopenta[a]chrysen-9-yl)spiro[3.3]hept-5-ene-2,2-dicarboxylic acid] | 1750
4 | C=C(C)[C@@H]1CC[C@]2(NCCN3CCOCC3)CC[C@]3(C)[C@H](CC[C@@H]4[C@@]5(C)CC=C(C6=CC7(C6)CC(C(=O)O)(C(=O)O)C7)C(C)(C)[C@@H]5CC[C@]43C)[C@@H]12 [Example A4, 6-((1R,3aS,5aR,5bR,7aR,11aS,11bR,13aR,13bR)-5a,5b,8,8,11a-pentamethyl-3a-((2-morpholinoethyl)amino)-1-(prop-1-en-2-yl)-2,3,3a,4,5,5a,5b,6,7,7a,8,11,11a,11b,12,13,13a,13b-octadecahydro-1H-cyclopenta[a]chrysen-9-yl)spiro[3.3]hept-5-ene-2,2-dicarboxylic acid] | 100
5 | C=C(C)[C@@H]1CC[C@]2(NCCN3CCS(=O)(=O)CC3)CC[C@]3(C)[C@H](CC[C@@H]4[C@@]5(C)CC=C(C6=CCC(C#N)(C(=O)O)CC6)C(C)(C)[C@@H]5CC[C@]43C)[C@@H]12 (stereo partly drawn) [Example A5, 1-cyano-4-((1R,3aS,5aR,5bR,7aR,11aS,11bR,13aR,13bR)-3a-((2-(1,1-dioxidothiomorpholino)ethyl)amino)-5a,5b,8,8,11a-pentamethyl-1-(prop-1-en-2-yl)-2,3,3a,4,5,5a,5b,6,7,7a,8,11,11a,11b,12,13,13a,13b-octadecahydro-1H-cyclopenta[a]chrysen-9-yl)cyclohex-3-enecarboxylic acid] | 4.26
6 | C=C(C)[C@@H]1CC[C@]2(NCCN3CCS(=O)(=O)CC3)CC[C@]3(C)[C@H](CC[C@@H]4[C@@]5(C)CC=C(C6=CCC(Cl)(C(=O)O)CC6)C(C)(C)[C@@H]5CC[C@]43C)[C@@H]12 (stereo partly drawn) [Example A7, 1-chloro-4-((1R,3aS,5aR,5bR,7aR,11aS,11bR,13aR,13bR)-3a-((2-(1,1-dioxidothiomorpholino)ethyl)amino)-5a,5b,8,8,11a-pentamethyl-1-(prop-1-en-2-yl)-2,3,3a,4,5,5a,5b,6,7,7a,8,11,11a,11b,12,13,13a,13b-octadecahydro-1H-cyclopenta[a]chrysen-9-yl)cyclohex-3-enecarboxylic acid] | 2.91
7 | C=C(C)[C@@H]1CC[C@]2(NCCN3CCC(S(C)(=O)=O)CC3)CC[C@]3(C)[C@H](CC[C@@H]4[C@@]5(C)CC=C(C6=CCC(F)(C(=O)O)CC6)C(C)(C)[C@@H]5CC[C@]43C)[C@@H]12 (stereo partly drawn) [Example A9, 1-fluoro-4-((1R,3aS,5aR,5bR,7aR,11aS,11bR,13aR,13bR)-5a,5b,8,8,11a-pentamethyl-3a-((2-(4-(methylsulfonyl)piperidin-1-yl)ethyl)amino)-1-(prop-1-en-2-yl)-2,3,3a,4,5,5a,5b,6,7,7a,8,11,11a,11b,12,13,13a,13b-octadecahydro-1H-cyclopenta[a]chrysen-9-yl)cyclohex-3-enecarboxylic acid] | 2.84
8 | C=C(C)[C@@H]1CC[C@]2(NCCN3CCS(=O)(=O)CC3)CC[C@]3(C)[C@H](CC[C@@H]4[C@@]5(C)CC=C(C6=CCC(CCO)(C(=O)O)CC6)C(C)(C)[C@@H]5CC[C@]43C)[C@@H]12 (stereo partly drawn) [Example A10, 4-((1R,3aS,5aR,5bR,7aR,11aS,11bR,13aR,13bR)-3a-((2-(1,1-dioxidothiomorpholino)ethyl)amino)-5a,5b,8,8,11a-pentamethyl-1-(prop-1-en-2-yl)-2,3,3a,4,5,5a,5b,6,7,7a,8,11,11a,11b,12,13,13a,13b-octadecahydro-1H-cyclopenta[a]chrysen-9-yl)-1-(2-hydroxyethyl)cyclohex-3-enecarboxylic acid] | 4.86
9 | C=C(C)[C@@H]1CC[C@]2(NCCN3CCS(=O)(=O)CC3)CC[C@]3(C)[C@H](CC[C@@H]4[C@@]5(C)CC=C(C6=CCC(CO)(C(=O)O)CC6)C(C)(C)[C@@H]5CC[C@]43C)[C@@H]12 (stereo partly drawn) [Example A12, 4-((1R,3aS,5aR,5bR,7aR,11aS,11bR,13aR,13bR)-3a-((2-(1,1-dioxidothiomorpholino)ethyl)amino)-5a,5b,8,8,11a-pentamethyl-1-(prop-1-en-2-yl)-2,3,3a,4,5,5a,5b,6,7,7a,8,11,11a,11b,12,13,13a,13b-octadecahydro-1H-cyclopenta[a]chrysen-9-yl)-1-(hydroxymethyl)cyclohex-3-enecarboxylic acid] | 2.46
10 | C=C(C)[C@@H]1CC[C@]2(CNCCCN3CCS(=O)(=O)CC3)CC[C@]3(C)[C@H](CC[C@@H]4[C@@]5(C)CC=C(C6=CC7(C6)CC(C(=O)O)(C(=O)O)C7)C(C)(C)[C@@H]5CC[C@]43C)[C@@H]12 [Example A14, 6-((1R,3aS,5aR,5bR,7aR,11aS,11bR,13aR,13bR)-3a-(((3-(1,1-dioxidothiomorpholino)propyl)amino)methyl)-5a,5b,8,8,11a-pentamethyl-1-(prop-1-en-2-yl)-2,3,3a,4,5,5a,5b,6,7,7a,8,11,11a,11b,12,13,13a,13b-octadecahydro-1H-cyclopenta[a]chrysen-9-yl)spiro[3.3]hept-5-ene-2,2-dicarboxylic acid] | 190
11 | C=C(C)[C@@H]1CC[C@]2(NCCN3CCS(=O)(=O)CC3)CC[C@]3(C)[C@H](CC[C@@H]4[C@@]5(C)CC=C(C6=CC(C)=C(C(=O)O)CC6)C(C)(C)[C@@H]5CC[C@]43C)[C@@H]12 [Example A16, 4-((1R,3aS,5aR,5bR,7aR,11aS,11bR,13aR,13bR)-3a-((2-(1,1-dioxidothiomorpholino)ethyl)amino)-5a,5b,8,8,11a-pentamethyl-1-(prop-1-en-2-yl)-2,3,3a,4,5,5a,5b,6,7,7a,8,11,11a,11b,12,13,13a,13b-octadecahydro-1H-cyclopenta[a]chrysen-9-yl)-2-methylcyclohexa-1,3-dienecarboxylic acid] | 2.23
12 | C=C(C)[C@@H]1CC[C@]2(NCCN3CCS(=O)(=O)CC3)CC[C@]3(C)[C@H](CC[C@@H]4[C@@]5(C)CC=C(C6=COC(C)(C(=O)O)OC6)C(C)(C)[C@@H]5CC[C@]43C)[C@@H]12 (stereo partly drawn) [Example A17, 5-((1R,3aS,5aR,5bR,7aR,11aS,11bR,13aR,13bR)-3a-((2-(1,1-dioxidothiomorpholino)ethyl)amino)-5a,5b,8,8,11a-pentamethyl-1-(prop-1-en-2-yl)-2,3,3a,4,5,5a,5b,6,7,7a,8,11,11a,11b,12,13,13a,13b-octadecahydro-1H-cyclopenta[a]chrysen-9-yl)-2-methyl-4H-1,3-dioxine-2-carboxylic acid] | 320
13 | C=C(C)[C@@H]1CC[C@]2(NCCN3CCS(=O)(=O)CC3)CC[C@]3(C)[C@H](CC[C@@H]4[C@@]5(C)CC=C(C6=CC(C(=O)O)CC6)C(C)(C)[C@@H]5CC[C@]43C)[C@@H]12 (stereo partly drawn) [Example A21, 3-((1R,3aS,5aR,5bR,7aR,11aS,11bR,13aR,13bR)-3a-((2-(1,1-dioxidothiomorpholino)ethyl)amino)-5a,5b,8,8,11a-pentamethyl-1-(prop-1-en-2-yl)-2,3,3a,4,5,5a,5b,6,7,7a,8,11,11a,11b,12,13,13a,13b-octadecahydro-1H-cyclopenta[a]chrysen-9-yl)cyclopent-2-enecarboxylic acid] | 2.76
14 | C=C(C)[C@@H]1CC[C@]2(NCCN3CCS(=O)(=O)CC3)CC[C@]3(C)[C@H](CC[C@@H]4[C@@]5(C)CC=C(C6=CCC(C(=O)O)C6)C(C)(C)[C@@H]5CC[C@]43C)[C@@H]12 (stereo partly drawn) [Example A22, 3-((1R,3aS,5aR,5bR,7aR,11aS,11bR,13aR,13bR)-3a-((2-(1,1-dioxidothiomorpholino)ethyl)amino)-5a,5b,8,8,11a-pentamethyl-1-(prop-1-en-2-yl)-2,3,3a,4,5,5a,5b,6,7,7a,8,11,11a,11b,12,13,13a,13b-octadecahydro-1H-cyclopenta[a]chrysen-9-yl)cyclopent-3-enecarboxylic acid] | 3.53
